In ChEMBL document CHEMBL5042504 (J Med Chem, 2022):
Calls of active or inactive are those of the source. The rule behind the calls is not given here.

Experiments:
[1] = molecular target: Histone deacetylase 2 (Homo sapiens, UniProt Q92769); assay: Inhibition of human recombinant HDAC2 using Boc-Lys(acetyl)-AMC substrate incubated for 2 hrs by fluorescence based assay
[2] = molecular target: T1, Protein deacetylase HDAC6 (Homo sapiens, UniProt Q9UBN7); assay: Inhibition of human recombinant HDAC6 using Boc-Lys(acetyl)-AMC substrate incubated for 2 hrs by fluorescence based assay
T1 sequence (Q9UBN7 whole entry): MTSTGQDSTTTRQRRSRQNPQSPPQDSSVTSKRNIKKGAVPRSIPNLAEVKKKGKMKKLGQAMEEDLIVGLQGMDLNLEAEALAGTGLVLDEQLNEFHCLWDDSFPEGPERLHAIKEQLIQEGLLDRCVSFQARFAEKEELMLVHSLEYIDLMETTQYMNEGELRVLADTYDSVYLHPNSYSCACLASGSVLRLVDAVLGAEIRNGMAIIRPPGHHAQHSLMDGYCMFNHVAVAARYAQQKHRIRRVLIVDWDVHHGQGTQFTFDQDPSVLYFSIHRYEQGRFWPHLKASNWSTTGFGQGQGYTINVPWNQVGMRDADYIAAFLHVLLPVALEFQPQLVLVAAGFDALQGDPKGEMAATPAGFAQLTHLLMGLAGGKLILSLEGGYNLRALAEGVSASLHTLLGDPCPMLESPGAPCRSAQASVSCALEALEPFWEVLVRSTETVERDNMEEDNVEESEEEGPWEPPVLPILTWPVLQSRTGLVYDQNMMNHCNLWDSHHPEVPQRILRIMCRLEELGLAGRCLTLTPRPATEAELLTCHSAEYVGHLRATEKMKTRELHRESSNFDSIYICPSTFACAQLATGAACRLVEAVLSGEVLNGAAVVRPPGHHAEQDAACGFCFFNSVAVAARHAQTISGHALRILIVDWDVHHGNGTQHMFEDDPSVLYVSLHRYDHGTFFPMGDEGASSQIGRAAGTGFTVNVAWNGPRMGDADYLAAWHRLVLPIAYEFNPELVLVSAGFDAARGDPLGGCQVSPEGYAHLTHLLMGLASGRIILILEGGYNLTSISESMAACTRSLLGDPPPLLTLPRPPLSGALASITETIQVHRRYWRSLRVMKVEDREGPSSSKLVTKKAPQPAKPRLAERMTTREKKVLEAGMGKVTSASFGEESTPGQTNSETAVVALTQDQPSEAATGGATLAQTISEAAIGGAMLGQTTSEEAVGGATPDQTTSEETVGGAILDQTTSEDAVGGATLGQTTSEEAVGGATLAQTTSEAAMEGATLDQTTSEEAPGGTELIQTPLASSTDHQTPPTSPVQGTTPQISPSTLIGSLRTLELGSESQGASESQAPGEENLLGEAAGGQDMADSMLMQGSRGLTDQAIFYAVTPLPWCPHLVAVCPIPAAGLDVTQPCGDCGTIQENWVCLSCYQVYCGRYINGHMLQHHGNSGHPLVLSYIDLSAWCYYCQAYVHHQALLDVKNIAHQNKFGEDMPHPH

[3] = tested on: MV4-11; assay: cells; conditions: Homo sapiens, MV4-11, 48 h
Description: Antiproliferative activity against human MV4-11 AML cells assessed as cell viability measured after 48 hrs by multiplate reader method

[4] = molecular target: Histone deacetylase 3 (Homo sapiens, UniProt O15379); assay: Inhibition of human recombinant HDAC3 using Boc-Lys(acetyl)-AMC substrate incubated for 2 hrs by fluorescence based assay
Chain of Histone deacetylase 3 (O15379 whole entry): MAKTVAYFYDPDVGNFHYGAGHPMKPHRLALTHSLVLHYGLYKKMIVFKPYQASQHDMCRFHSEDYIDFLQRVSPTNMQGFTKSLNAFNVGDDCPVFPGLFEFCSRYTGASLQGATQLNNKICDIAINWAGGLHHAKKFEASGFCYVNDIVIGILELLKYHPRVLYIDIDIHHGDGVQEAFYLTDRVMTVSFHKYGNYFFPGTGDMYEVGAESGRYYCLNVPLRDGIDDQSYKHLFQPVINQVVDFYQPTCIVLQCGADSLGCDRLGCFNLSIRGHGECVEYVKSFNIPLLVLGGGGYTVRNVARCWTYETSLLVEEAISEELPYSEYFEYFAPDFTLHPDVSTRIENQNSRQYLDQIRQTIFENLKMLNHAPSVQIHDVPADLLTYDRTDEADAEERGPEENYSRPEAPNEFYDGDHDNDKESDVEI

[5] = molecular target: Histone deacetylase 1 (Homo sapiens, UniProt Q13547); assay: Inhibition of human recombinant HDAC1 using Boc-Lys(acetyl)-AMC substrate incubated for 2 hrs by fluorescence based assay
Chain of Histone deacetylase 1 (Q13547 whole entry): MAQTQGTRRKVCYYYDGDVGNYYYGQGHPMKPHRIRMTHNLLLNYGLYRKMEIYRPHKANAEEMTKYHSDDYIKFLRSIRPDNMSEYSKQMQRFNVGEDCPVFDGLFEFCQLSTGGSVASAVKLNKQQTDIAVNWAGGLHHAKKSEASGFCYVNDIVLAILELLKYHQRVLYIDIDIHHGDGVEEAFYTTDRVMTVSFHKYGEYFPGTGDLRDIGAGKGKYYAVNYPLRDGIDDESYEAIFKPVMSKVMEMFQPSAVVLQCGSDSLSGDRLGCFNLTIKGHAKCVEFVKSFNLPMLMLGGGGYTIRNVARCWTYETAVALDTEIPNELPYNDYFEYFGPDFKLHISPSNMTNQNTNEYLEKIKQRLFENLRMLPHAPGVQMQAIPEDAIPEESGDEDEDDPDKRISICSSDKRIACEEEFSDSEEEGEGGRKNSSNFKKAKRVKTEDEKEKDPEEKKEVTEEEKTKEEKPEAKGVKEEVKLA

[6] = Drug uptake in BALB/c mouse xenografted with human AML MV4-11 cells assessed as tumor tissue at 4mg/kg, po measured after 0.5 to 6 hrs by LC-MS/MS; type: ADME, organism-based; conditions: in vivo, time 0.5-6 hrs
[7] = Drug distribution in BALB/c mouse heart measured at 4 mg/kg, po or ip after 0.5 hrs after 0.5 hrs; type: ADME, organism-based; conditions: in vivo
[8] = Drug distribution in BALB/c mouse lung measured at 4 mg/kg, po or ip after 0.5 hrs after 0.5 hrs; type: ADME, organism-based; conditions: in vivo
[9] = Drug distribution in tumor of BALB/c mouse xenografted with human MV4-11 cells assessed as measured after 2 hrs; type: ADME; conditions: read-out: Ct
[10] = Plasma concentration in BALB/c mouse xenografted with human AML MV4-11 cells at 4 mg/kg, ip; type: ADME, organism-based; conditions: in vivo
[11] = tested on: MV4-11; assay: Antitumor activity against human MV4-11 cells xenografted in BALB/c mouse assessed as tumor growth inhibition at 4 mg/kg, ip administered for 24 days; type: functional, organism-based; conditions: time 24.0 day
[12] = Drug distribution in BALB/c mouse liver measured at 4 mg/kg, po or ip after 0.5 hrs after 0.5 hrs; type: ADME, organism-based; conditions: in vivo
[13] = Drug distribution in BALB/c mouse spleen measured at 4 mg/kg, po or ip after 0.5 hrs; type: ADME, organism-based; conditions: in vivo
[14] = tested on: MV4-11; assay: Antitumor activity against human MV4-11 cells xenografted in BALB/c mouse assessed as tumor growth inhibition at 4 mg/kg, po administered for 24 days; type: functional, organism-based; conditions: time 24.0 day
[15] = Plasma concentration in BALB/c mouse xenografted with human AML MV4-11 cells at 4 mg/kg, po; type: ADME, organism-based; conditions: in vivo
[16] = Drug uptake in BALB/c mouse xenografted with human AML MV4-11 cells assessed as tumor tissue at 4 mg/kg ip measured after 0.5 to 6 hrs by LC-MS/MS; type: ADME, organism-based; conditions: in vivo, time 0.5-6 hrs
[17] = Drug distribution in BALB/c mouse gut measured at 4 mg/kg, po or ip after 2 to 8 hrs after 0.5 hrs; type: ADME, organism-based; conditions: in vivo, time 2-8 hrs
[18] = tested on: MV4-11; assay: Antitumor activity against human MV4-11 cells xenografted in BALB/c mouse assessed as tumor growth inhibition at 2 to 4 mg/kg, po administered for 24 days; type: functional; conditions: dose 2-4 mg/kg, time 24.0 day
[19] = Drug distribution in tumor of BALB/c mouse xenografted with human MV4-11 cells assessed as measured after 0.5 hrs; type: ADME; conditions: read-out: Ct
[20] = Drug distribution in BALB/c mouse brain measured at 4 mg/kg, po or ip after 2 to 8 hrs after 0.5 hrs; type: ADME, organism-based; conditions: in vivo, time 2-8 hrs
[21] = Drug distribution in BALB/c mouse spleen measured at 4 mg/kg, po or ip after 2 to 8 hrs after 0.5 hrs; type: ADME, organism-based; conditions: in vivo, time 2-8 hrs
[22] = Drug distribution in BALB/c mouse lung measured at 4 mg/kg, po or ip after 2 to 8 hrs after 0.5 hrs; type: ADME, organism-based; conditions: in vivo, time 2-8 hrs
[23] = Drug distribution in tumor of BALB/c mouse xenografted with human MV4-11 cells assessed as measured after 8 hrs; type: ADME; conditions: read-out: Ct
[24] = Drug distribution in BALB/c mouse gut measured at 4 mg/kg, po or ip after 0.5 hrs after 0.5 hrs; type: ADME, organism-based; conditions: in vivo
[25] = Drug distribution in BALB/c mouse kidney measured at 4 mg/kg, po or ip after 0.5 hrs after 0.5 hrs; type: ADME, organism-based; conditions: in vivo
[26] = Drug distribution in BALB/c mouse brain measured at 4 mg/kg, po or ip after 0.5 hrs after 0.5 hrs; type: ADME, organism-based; conditions: in vivo
[27] = Drug distribution in BALB/c mouse kidney measured at 4 mg/kg, po or ip after 2 to 8 hrs after 0.5 hrs; type: ADME, organism-based; conditions: in vivo, time 2-8 hrs
[28] = Drug distribution in BALB/c mouse liver measured at 4 mg/kg, po or ip after 2 to 8 hrs after 0.5 hrs; type: ADME, organism-based; conditions: in vivo, time 2-8 hrs
[29] = Drug distribution in BALB/c mouse heart measured at 4 mg/kg, po or ip after 2 to 8 hrs after 0.5 hrs; type: ADME, organism-based; conditions: in vivo, time 2-8 hrs

Chain of Histone deacetylase 2 (Q92769 whole entry): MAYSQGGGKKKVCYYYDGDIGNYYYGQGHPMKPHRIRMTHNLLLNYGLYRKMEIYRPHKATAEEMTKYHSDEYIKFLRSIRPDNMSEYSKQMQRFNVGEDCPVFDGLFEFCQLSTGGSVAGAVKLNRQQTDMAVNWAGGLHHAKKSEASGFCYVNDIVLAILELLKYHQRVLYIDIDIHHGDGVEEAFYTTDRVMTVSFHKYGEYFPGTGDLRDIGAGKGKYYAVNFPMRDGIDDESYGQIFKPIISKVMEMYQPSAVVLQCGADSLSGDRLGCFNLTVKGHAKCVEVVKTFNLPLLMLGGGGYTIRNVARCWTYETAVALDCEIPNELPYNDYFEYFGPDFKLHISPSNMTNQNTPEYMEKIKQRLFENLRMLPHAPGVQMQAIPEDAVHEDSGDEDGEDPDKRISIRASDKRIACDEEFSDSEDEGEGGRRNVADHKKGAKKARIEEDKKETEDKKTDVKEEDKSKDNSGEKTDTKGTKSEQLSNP

Compound: CCCNNC(=O)c1ccc(CNC(=O)c2cc3cc(Cl)ccc3o2)cc1
- IC50 [1]: 28.1 nM
- IC50 [2]: > 10000 nM
- IC50 [3]: 248 nM
- IC50 [4]: 0.62 nM
- IC50 [5]: 8.91 nM

Compound: CCCNNC(=O)c1ccc(CNC(=O)c2cc3ccccc3s2)cc1
- IC50 [2]: > 10000 nM

Compound: CCCNNC(=O)c1ccc(CNC(=O)c2nc3ccccc3s2)cc1
- IC50 [1]: 42 nM
- IC50 [2]: > 10000 nM
- IC50 [3]: 43.6 nM
- IC50 [4]: 1.31 nM
- IC50 [5]: 9.73 nM

Compound: CCCNNC(=O)c1ccc(CNC(=O)c2cc3ccccc3cn2)cc1
- IC50 [1]: 30.9 nM
- IC50 [2]: > 10000 nM
- IC50 [3]: 45.9 nM
- IC50 [4]: 1.48 nM
- IC50 [5]: 8.8 nM

Compound: CCCNNC(=O)c1ccc(CNC(=O)c2cc3cc(Br)ccc3[nH]2)cc1
- IC50 [1]: 186 nM
- IC50 [2]: > 10000 nM
- IC50 [3]: 66.5 nM
- IC50 [4]: 1.31 nM
- IC50 [5]: 58.3 nM

Compound: CCCNNC(=O)c1ccc(CNC(=O)c2ccc3cnccc3n2)cc1
- IC50 [1]: 41.4 nM
- IC50 [2]: > 10000 nM
- IC50 [3]: 59.7 nM
- IC50 [4]: 2.03 nM
- IC50 [5]: 16.2 nM

Compound: CCCNNC(=O)c1ccc(CNC(=O)c2ccc3ccccc3n2)cc1
- IC50 [1]: 57.3 nM
- IC50 [2]: > 10000 nM
- IC50 [3]: 57.8 nM
- IC50 [4]: 0.9 nM
- IC50 [5]: 10.7 nM

Compound: CCCNNC(=O)c1ccc(CNC(=O)c2ccc3ccncc3c2)cc1
- IC50 [1]: 30.1 nM
- IC50 [2]: > 10000 nM
- IC50 [3]: 74 nM
- IC50 [4]: 1.55 nM
- IC50 [5]: 20.8 nM

Compound: CCCNNC(=O)c1ccc(CNC(=O)c2cnc3ccccc3c2)cc1
- IC50 [1]: 59.6 nM
- IC50 [2]: > 10000 nM
- IC50 [3]: 71 nM
- IC50 [4]: 1.79 nM
- IC50 [5]: 13.7 nM

Compound: CCCNNC(=O)c1ccc(CNC(=O)c2ccc3ccccc3c2)cc1
- IC50 [1]: 30.5 nM
- IC50 [2]: > 10000 nM
- IC50 [3]: 43.6 nM
- IC50 [4]: 0.89 nM
- IC50 [5]: 7.98 nM

Compound: Cc1[nH]c2ccccc2c1CCNCc1ccc(/C=C/C(=O)NO)cc1 [PANOBINOSTAT]
- Drug uptake [6]: Active
- Drug uptake [7]: Active
- Drug uptake [8]: Active
- concentration at 2 h [9]: 151 ng/g
- Drug uptake [10]: Active
- Activity [11]: Active
- Drug uptake [12]: Active
- Drug uptake [13]: Active
- Activity [14]: Active
- Drug uptake [15]: Active
- Drug uptake [16]: Active
- Drug uptake [17]: Active
- TGI [18]: inactive
- concentration at 0.5 h [19]: 82.4 ng/g
- Drug uptake [20]: Active
- Drug uptake [21]: Active
- Drug uptake [22]: Active
- concentration at 8 h [23]: 108 ng/g
- Drug uptake [24]: Active
- Drug uptake [25]: Active
- Drug uptake [26]: Active
- Drug uptake [27]: Active
- Drug uptake [28]: Active
- Drug uptake [29]: Active
